Among the data in ChEMBL document CHEMBL1122184, “Synthesis and antileukemic activity of fluorinated analogues of 2,3-dihydro-5-phenyl-6,7-bis(hydroxymethyl)-1H-pyrrolizine biscarbamate” (J Med Chem, 1982) are T/C values, retold here.

Structures are written as SMILES.

Data set [1] has as its system Mus musculus. As to the kind of experiment: In vivo activity of compound was measured against P388 lymphocytic leukemia at the dose of 25 mg/kg. The format is functional.
Data set [2] deals with Mus musculus. As to the kind of experiment: In vivo activity of compound was measured against P388 lymphocytic leukemia at the dose of 100 mg/kg. The format is functional.
The test system of data set [3] is Mus musculus. As to the kind of experiment: In vivo activity of compound was measured against P388 lymphocytic leukemia at the dose of 3.13 mg/kg. The format is functional.
The subject of data set [4] is Mus musculus. In words: In vivo activity of compound was measured against P388 lymphocytic leukemia at the dose of 50 mg/kg. The class given is functional.
The test system of data set [5] is Mus musculus. In words: In vivo activity of compound was measured against P388 lymphocytic leukemia at the dose of 1.56 mg/kg. The class given is functional.
Data set [6] relates to Mus musculus. In words: In vivo activity of compound was measured against P388 lymphocytic leukemia at the dose of 6.25 mg/kg. The format is functional.
Data set [7] deals with Mus musculus. In words: In vivo activity of compound was measured against P388 lymphocytic leukemia at the dose of 12.5 mg/kg. The class given is functional.
Data set [8] concerns Mus musculus. In words: In vivo activity of compound was measured against P388 lymphocytic leukemia at the dose of 200 mg/kg; toxic. The arrangement: dose 200 mg/kg. The class given is functional, organism-based.
Data set [9] has as its system Mus musculus. In words: In vivo activity of compound was measured against P388 lymphocytic leukemia at the dose of 100 mg/kg; toxic. Further details: dose 100 mg/kg. The class given is functional, organism-based.
In data set [10] the test system is Mus musculus. As to the kind of experiment: In vivo activity of compound was measured against P388 lymphocytic leukemia at the dose of 50 mg/kg; toxic. The class given is functional, organism-based. The arrangement: dose 50 mg/kg.
The test system of data set [11] is Mus musculus. As to the kind of experiment: In vivo activity of compound was measured against P388 lymphocytic leukemia at the dose of 25 mg/kg; toxic. The class given is functional, organism-based. Further details: dose 25 mg/kg.
The subject of data set [12] is Mus musculus. In words: In vivo activity of compound was measured against P388 lymphocytic leukemia at the dose of 0.78 mg/kg. The class given is functional.
Data set [13] deals with Mus musculus. In words: In vivo activity of compound was measured against P388 lymphocytic leukemia at the dose of 100 mg/kg. The format is functional.
The subject of data set [14] is Mus musculus. In words: In vivo activity of compound was measured against P388 lymphocytic leukemia at the dose of 50 mg/kg. The class given is functional.
Data set [15] has as its system Mus musculus. As to the kind of experiment: In vivo activity of compound was measured against P388 lymphocytic leukemia at the dose of 0.78 mg/kg; toxic. The format is ADME, organism-based. The arrangement: dose 0.78 mg/kg.
Data set [16] deals with Mus musculus. As to the kind of experiment: In vivo activity of compound was measured against P388 lymphocytic leukemia at the dose of 12.5 mg/kg. The format is functional.
For data set [17], the system named is Mus musculus. In words: In vivo activity of compound was measured against P388 lymphocytic leukemia at the dose of 6.25 mg/kg. The format is functional.
In data set [18] the test system is Mus musculus. As to the kind of experiment: In vivo activity of compound was measured against P388 lymphocytic leukemia at the dose of 25 mg/kg. The class given is functional.
The test system of data set [19] is Mus musculus. In words: In vivo activity of compound was measured against P388 lymphocytic leukemia at the dose of 0.76 mg/kg. The format is functional.

Broadly, the T/C is the ratio of treated to control. Regarding `CC(C)NC(=O)OCc1c(COC(=O)NC(C)C)c(-c2ccc(Cl)c(Cl)c2)n2c1CCC2`, the T/C in the data set on Mus musculus [1] is listed as 226%; with Mus musculus [2], 113%; with Mus musculus [3], 141%; in the data set on Mus musculus [4], 160%; in the data set with Mus musculus [5] it was 122%; in the data set on Mus musculus [6], 149%. Besides, the T/C in the data set on Mus musculus [7] was 177%; with Mus musculus [8] it was “Toxic”.

In the case of `CNC(=O)OCc1c(COC(=O)NC)c(-c2ccc(F)cc2)n2c1CCC2`, the T/C entry with Mus musculus [9] is “Toxic”; in the data set on Mus musculus [10], “Toxic”; in the data set on Mus musculus [11], “Toxic”; with Mus musculus [3] it was 141%; in the data set with Mus musculus [5], 122%; in the data set with Mus musculus [6], 137%. Further, the T/C in the data set on Mus musculus [12] is 146%; with Mus musculus [7], 128%; in the data set with Mus musculus [8] it was “Toxic”.

On to `CC(C)NC(=O)OCc1c(COC(=O)NC(C)C)c(-c2ccc(F)c(F)c2)n2c1CCC2`, for which the T/C turned out to be 123% in the data set with Mus musculus [1]; 70% in the data set on Mus musculus [13]; 151% in the data set with Mus musculus [3]; 126% in the data set on Mus musculus [5]; 160% with Mus musculus [6]; 178% with Mus musculus [7]. The T/C was 92% in the data set on Mus musculus [14], “Toxic” in the data set on Mus musculus [8] and “Toxic” with Mus musculus [15].

For `CNC(=O)OCc1c(COC(=O)NC)c(-c2cc(F)ccc2F)n2c1CCC2`, the T/C entry in the data set on Mus musculus [9] is “Toxic”; in the data set on Mus musculus [16] it was 151%; in the data set with Mus musculus [4], 73%; in the data set with Mus musculus [17], 147%; with Mus musculus [8], “Toxic”; in the data set with Mus musculus [18], 156%.

Turning to `CNC(=O)OCc1c(COC(=O)NC)c(-c2c(F)cccc2F)n2c1CCC2`, the T/C in the data set on Mus musculus [1] was 88%; with Mus musculus [9], “Toxic”; with Mus musculus [10], “Toxic”; with Mus musculus [3], 148%; in the data set on Mus musculus [6], 166%; in the data set on Mus musculus [7], 148%. Further, in the data set on Mus musculus [8], the T/C result is “Toxic”.

As to `CC(C)NC(=O)OCc1c(COC(=O)NC(C)C)c(-c2ccc(F)cc2F)n2c1CCC2`, the T/C in the data set with Mus musculus [1] is 99%; in the data set with Mus musculus [9], “Toxic”; with Mus musculus [10], “Toxic”; with Mus musculus [3], 168%; in the data set with Mus musculus [5], 142%; in the data set with Mus musculus [19], 135%. Moreover, the values for the T/C with Mus musculus [6], in the data set with Mus musculus [7] and with Mus musculus [8] were 162%, 180% and “Toxic”, respectively.

`CNC(=O)OCc1c(COC(=O)NC)c(-c2cccc(F)c2F)n2c1CCC2`: the T/C was 156% in the data set on Mus musculus [1]; “Toxic” in the data set with Mus musculus [9]; “Toxic” in the data set on Mus musculus [10]; 134% in the data set on Mus musculus [3]; 131% in the data set with Mus musculus [6]; 149% in the data set on Mus musculus [7]. The T/C entry with Mus musculus [8] is “Toxic”.
